Values of other authors in patent US11912734B2, “Solid-phase synthesis of oligonucleotides containing N6-(2-deoxy-alpha,beta-derythropentofuranosyl)-2,6-diamino-4-hydroxy-5-formamidopyrimidine (Fapy⋅dG)” (The Johns Hopkins University, priority 2020, dated 2024).

Assays:
Fpg = Fpg (Escherichia coli, UniProt P05523); conditions: Fapy·dG:dC versus Fapy·dG:dA
MutY = MutY (Escherichia coli, UniProt P17802); conditions: relative to 8-OxodGuo:dA duplex; more rapid than from a dG:dA mispair
hOGG1 = hOGG1 (Homo sapiens, UniProt O15527); conditions: dC versus dA opposite the lesion
Chain of hOGG1 (O15527 whole entry): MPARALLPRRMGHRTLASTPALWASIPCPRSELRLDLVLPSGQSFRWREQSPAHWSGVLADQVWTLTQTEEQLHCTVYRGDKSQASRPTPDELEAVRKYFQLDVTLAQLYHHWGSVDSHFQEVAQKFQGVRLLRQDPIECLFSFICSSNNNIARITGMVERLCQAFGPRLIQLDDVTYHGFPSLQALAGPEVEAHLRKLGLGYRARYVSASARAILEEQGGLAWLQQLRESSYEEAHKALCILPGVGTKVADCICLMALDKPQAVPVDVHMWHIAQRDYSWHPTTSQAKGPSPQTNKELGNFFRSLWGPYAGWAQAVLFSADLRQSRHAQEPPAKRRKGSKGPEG

Chain of Fpg (P05523 whole entry): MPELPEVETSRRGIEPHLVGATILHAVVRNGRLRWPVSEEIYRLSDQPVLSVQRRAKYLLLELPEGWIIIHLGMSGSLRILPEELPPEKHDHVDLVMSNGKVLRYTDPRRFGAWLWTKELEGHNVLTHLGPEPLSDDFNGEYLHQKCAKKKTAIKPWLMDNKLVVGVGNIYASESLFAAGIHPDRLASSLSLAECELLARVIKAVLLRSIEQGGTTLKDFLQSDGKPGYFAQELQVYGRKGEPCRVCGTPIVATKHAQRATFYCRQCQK
Chain of MutY (P17802 whole entry): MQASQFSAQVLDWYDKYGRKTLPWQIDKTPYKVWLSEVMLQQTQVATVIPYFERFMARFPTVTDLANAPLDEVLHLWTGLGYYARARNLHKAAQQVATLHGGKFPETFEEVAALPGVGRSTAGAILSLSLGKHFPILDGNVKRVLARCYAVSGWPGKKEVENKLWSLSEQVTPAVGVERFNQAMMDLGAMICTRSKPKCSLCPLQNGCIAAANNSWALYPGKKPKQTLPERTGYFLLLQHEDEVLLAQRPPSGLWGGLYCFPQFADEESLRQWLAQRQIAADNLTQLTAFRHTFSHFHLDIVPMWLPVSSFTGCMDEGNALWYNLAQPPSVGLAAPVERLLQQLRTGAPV

SMILES: Nc1nc(O)c(NC=O)c(NC2C[C@H](O)[C@@H](CO)O2)n1 (stereo partly drawn) [Fapy·dG, N6-(2-Deoxy-α,β-D-erythropentofuranosyl)-2,6-diamino-4-hydroxy-5-formamidopyrimidine]
- efficiency of glycosidic bond hydrolysis of the lesion in a Fapy·dG:dC base pair relative to opposite dA (Fpg): ~20 times
- incision of mismatched dA opposite Fapy·dG, more slowly than from a duplex containing 8-OxodGuo:dA (MutY): 4 fold
- discrimination against a Fapy·dG:dA base pair (hOGG1): more than 40 fold
